As a reminder, the half-life is how long it takes for the measured level to halve. Higher therefore signals slow loss.

For series [1] the following is noted: VD3 dispersion in water, UV light for 9.5h; ref Luo et al., 2012; cited from earlier work.
Series [2] is described as follows: physchem. The class given is physicochemical.
Series [3] can be described thus: Stability of VD3-TyroSphere formulations during storage. The format is physicochemical. As to conditions: in Transcutol (1mg/ml), 2 months storing at room temperature.

`C=C1CC[C@H](O)C/C1=C/C=C1\CCC[C@]2(C)[C@@H]([C@H](C)CCCC(C)C)CC[C@@H]12` [VD3, cholecalciferol]: the “VD3 remained after UV exposure” value in series [1] is “about 30%”. In series [2], this compound gave a half-life of 76 h. The “drug lost in first 24h exposure to UV light” value in series [2] (VD3 in methanol solution, 254 nm UV) was about 20%. Further, the “photodegradation rate constant (zero-order)” value in series [2] (VD3 in methanol, 254 nm UV) is -1.194 µg/mL/h. Moreover, the “VD3 left after 134 h UV exposure” value in series [2] (methanol formulation, 254 nm UV) was 21%. In series [3], this compound had a VD3 detected of 2%.

(Values after publication PMC5182151 (International journal of pharmaceutics, 2016).)
